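GI50 marks 50% less growth. TGI: total growth inhibition.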
Legend:
Test in all cases: NCI anticancer screen, dose series, 384-well format
SW-620 colon = system: SW-620 colon
OVCAR-3 ovarian = system: OVCAR-3 ovarian
SK-OV-3 ovarian = system: SK-OV-3 ovarian
HL-60(TB) leukemia = system: HL-60(TB) leukemia
SF-268 CNS = system: SF-268 CNS
NCI-H522 lung = system: NCI-H522 lung
UO-31 renal = system: UO-31 renal
SK-MEL-2 melanoma = system: SK-MEL-2 melanoma
DU-145 prostate = system: DU-145 prostate
NCI-H226 lung = system: NCI-H226 lung
HOP-62 NSCLC = system: HOP-62 NSCLC
PC-3 prostate = system: PC-3 prostate
IGROV1 ovarian = system: IGROV1 ovarian
NCI-H23 lung = system: NCI-H23 lung
M14 melanoma = system: M14 melanoma
HCT-116 colon = system: HCT-116 colon
SNB-19 CNS = system: SNB-19 CNS
UACC-62 melanoma = system: UACC-62 melanoma
786-0 renal = system: 786-0 renal
COLO 205 colon = system: COLO 205 colon
RXF 393 renal = system: RXF 393 renal
MDA-MB-435 melanoma = system: MDA-MB-435 melanoma
HT29 colon = system: HT29 colon
EKVX NSCLC = system: EKVX NSCLC
CAKI-1 renal = system: CAKI-1 renal
HOP-92 NSCLC = system: HOP-92 NSCLC
MDA-MB-231 breast = system: MDA-MB-231 breast
MDA-MB-468 breast = system: MDA-MB-468 breast
KM12 colon = system: KM12 colon
SF-539 CNS = system: SF-539 CNS
UACC-257 melanoma = system: UACC-257 melanoma
OVCAR-4 ovarian = system: OVCAR-4 ovarian
MOLT-4 leukemia = system: MOLT-4 leukemia
K-562 leukemia = system: K-562 leukemia
NCI-H460 NSCLC = system: NCI-H460 NSCLC
BT-549 breast = system: BT-549 breast
A498 renal = system: A498 renal
SN12C renal = system: SN12C renal
TK-10 renal = system: TK-10 renal
SK-MEL-28 melanoma = system: SK-MEL-28 melanoma
MALME-3M melanoma = system: MALME-3M melanoma

Question: Which results are given for `COc1cc(N2CCC(N3CCN(C)CC3)CC2)ccc1Nc1ncc(Cl)c(Nc2ccccc2S(=O)(=O)C(C)C)n1`?
Answer: GI50 (SW-620 colon): 0.218 µM; TGI (SW-620 colon): 1.18 µM; GI50 (OVCAR-3 ovarian): 0.517 µM; TGI (OVCAR-3 ovarian): 1.78 µM; GI50 (SK-OV-3 ovarian): 1.11 µM; TGI (SK-OV-3 ovarian): 2.32 µM; GI50 (HL-60(TB) leukemia): 0.0361 µM; TGI (HL-60(TB) leukemia): 0.187 µM; GI50 (SF-268 CNS): 0.397 µM; TGI (SF-268 CNS): 1.51 µM; GI50 (NCI-H522 lung): 0.367 µM; TGI (NCI-H522 lung): 1.49 µM; GI50 (UO-31 renal): 0.929 µM; TGI (UO-31 renal): 2.14 µM; GI50 (SK-MEL-2 melanoma): 0.383 µM; TGI (SK-MEL-2 melanoma): 1.83 µM; GI50 (DU-145 prostate): 0.3 µM; TGI (DU-145 prostate): 1.63 µM; GI50 (NCI-H226 lung): 0.118 µM; TGI (NCI-H226 lung): 0.648 µM; GI50 (HOP-62 NSCLC): 0.356 µM; TGI (HOP-62 NSCLC): 1.35 µM; GI50 (PC-3 prostate): 1.03 µM; TGI (PC-3 prostate): 2.22 µM; GI50 (IGROV1 ovarian): 0.283 µM; TGI (IGROV1 ovarian): 1.16 µM; GI50 (NCI-H23 lung): 0.228 µM; TGI (NCI-H23 lung): 1.39 µM; GI50 (M14 melanoma): 0.491 µM; TGI (M14 melanoma): 1.86 µM; GI50 (HCT-116 colon): 0.308 µM; TGI (HCT-116 colon): 1.63 µM; GI50 (SNB-19 CNS): 1.22 µM; TGI (SNB-19 CNS): 2.52 µM; GI50 (UACC-62 melanoma): 0.388 µM; TGI (UACC-62 melanoma): 1.69 µM; GI50 ([…]-0 renal): 1.01 µM; TGI (786-0 renal): 2.17 µM; GI50 (COLO 205 colon): 0.0518 µM; TGI (COLO 205 colon): 0.232 µM; GI50 (RXF 393 renal): 0.294 µM; TGI (RXF 393 renal): 0.952 µM; GI50 (MDA-MB-435 melanoma): 0.447 µM; TGI (MDA-MB-435 melanoma): 1.96 µM; GI50 (HT29 colon): 0.0486 µM; TGI (HT29 colon): 0.294 µM; GI50 (EKVX NSCLC): 0.0487 µM; TGI (EKVX NSCLC): 0.263 µM; GI50 (CAKI-1 renal): 0.49 µM; TGI (CAKI-1 renal): 1.56 µM; GI50 (HOP-92 NSCLC): 0.318 µM; TGI (HOP-92 NSCLC): 1.31 µM; GI50 (MDA-MB-231 breast): 0.556 µM; TGI (MDA-MB-231 breast): 1.89 µM; GI50 (MDA-MB-468 breast): 0.133 µM; TGI (MDA-MB-468 breast): 0.315 µM; GI50 (KM12 colon): 0.319 µM; TGI (KM12 colon): 1.29 µM; GI50 (SF-539 CNS): 0.246 µM; TGI (SF-539 CNS): 0.673 µM; GI50 (UACC-257 melanoma): 0.571 µM; TGI (UACC-257 melanoma): 1.95 µM; GI50 (OVCAR-4 ovarian): 0.417 µM; TGI (OVCAR-4 ovarian): 12.2 µM; GI50 (MOLT-4 leukemia): 0.202 µM; TGI (MOLT-4 leukemia): 0.687 µM; GI50 (K-562 leukemia): 0.404 µM; TGI (K-562 leukemia): 1.68 µM; GI50 (NCI-H460 NSCLC): 0.131 µM; TGI (NCI-H460 NSCLC): 1.07 µM; GI50 (BT-549 breast): 0.418 µM; TGI (BT-549 breast): 1.32 µM; GI50 (A498 renal): 0.79 µM; TGI (A498 renal): 2.79 µM; GI50 (SN12C renal): 0.385 µM; TGI (SN12C renal): 1.4 µM; GI50 (TK-10 renal): 0.379 µM; TGI (TK-10 renal): 1.51 µM; GI50 (SK-MEL-28 melanoma): 17.8 µM; TGI (SK-MEL-28 melanoma): 32.3 µM; GI50 (MALME-3M melanoma): 0.494 µM; TGI (MALME-3M melanoma): 1.84 µM
